Measured values from patent US20180000778A1, “SMALL MOLECULE ANTAGONISTS OF DUSP5 AND METHODS OF USE” (THE MEDICAL COLLEGE OF WISCONSIN, INC., priority 2015, published 2018).
Several values for one entry are separate records, joined by “and”; a condition that tells them apart may be missing. Identical values can stand only once.

Legend:
mutant DUSP5 = mutant DUSP5 (Homo sapiens, UniProt Q16690, S147P); assay: Restoration of mutant DUSP5 function
[1] = test system: normal vasculature in a developing embryo; assay: Effect on normal vasculature in a developing embryo
[2] = target: T1, GST-tagged full length DUSP5 (Homo sapiens, UniProt Q16690); assay: pNPP assay with GST-tagged full length DUSP5; type: biochemical; details: full length DUSP5, pNPP as substrate; listed as CSD3-2320
T1 construct: GST-tagged full length DUSP5, when pNPP was used as a substrate

PP1B = PP1B (Homo sapiens, UniProt P62140); assay: Phosphatase profiling, Biomol Green; type: biochemical; details: 30 μM, triplicate; negative = inhibition
Procedure: (§1) Assays were performed to profile compound CSDDD2320 against 21 phosphatase targets at 1 concentration (30 μM) in triplicate measurements. The aim was to identify whether the compound can affect the activity of the various phosphatase targets selected.
(§2) The PTPN6 (SHP1), PTPRF (LAR), PP1A, PP1B, PP2A, PTPN12(PTP-PEST), PTPN11(SHP2), CDC25A, CDC25B, CDC25C, PP2Ca, and PP2Cg phosphatase activity was determined by performing assays at 37° C. for 15 minutes in a final volume of 50 μl according to the following assay reaction recipe:
(§3) Component 1. 10 μl of diluted active protein phosphatase
(§4) Component 2. 5 μl of 1 mM tyrosine phosphopeptide-2 substrate (for PTPN6, PTPRF, PTPN12, and PTPN11) or threonine phosphopeptide substrate (for PP1A, PP1B, PP2A and PP2Cg) or PI(3,4,5)P3 substrate (for PTEN) or OMFP substrate (for CDC25A, CDC25B and CDC25C)
(§5) Component 3. 25 μl of phosphatase assay buffer
(§6) Component 4. 10 μl of compound (150 μM) or 10% DMSO
(§7) The assay was started by incubating the reaction mixture at 37° C. for 15 minutes. After the 15 minutes incubation period, the assay was terminated by the addition of 100 μl of Biomol Green reagent. The absorbance of the reaction solution was measured in a spectrophotometer at 650 nm. Blank control was set up that included all the assay components except the addition of the tyrosine phosphopeptide-2 substrate or related substrate (replace with equal volume of phosphatase assay buffer). The corrected activity for various phosphatase targets was determined by removing the blank control value.

PTPN6 (SHP1) = PTPN6 (SHP1) (Homo sapiens, UniProt P29350); assay: Phosphatase profiling, Biomol Green; type: biochemical; details: 30 μM, triplicate; negative = inhibition
Procedure: as §1, §2, §3, §4, §5, §6, §7

T1 sequence (Q16690 whole entry): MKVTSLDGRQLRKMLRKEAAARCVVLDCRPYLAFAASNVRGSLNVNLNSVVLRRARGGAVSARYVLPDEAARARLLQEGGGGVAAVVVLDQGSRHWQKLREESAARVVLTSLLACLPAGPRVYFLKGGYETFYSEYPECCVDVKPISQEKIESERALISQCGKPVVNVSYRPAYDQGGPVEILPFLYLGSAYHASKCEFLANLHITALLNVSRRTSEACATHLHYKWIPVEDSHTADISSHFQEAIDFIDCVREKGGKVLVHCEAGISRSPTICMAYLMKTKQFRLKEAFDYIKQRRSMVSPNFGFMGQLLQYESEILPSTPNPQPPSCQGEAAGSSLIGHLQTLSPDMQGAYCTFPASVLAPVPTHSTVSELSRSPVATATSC
PTPN6 (SHP1), sequence (P29350 whole entry, species assumed): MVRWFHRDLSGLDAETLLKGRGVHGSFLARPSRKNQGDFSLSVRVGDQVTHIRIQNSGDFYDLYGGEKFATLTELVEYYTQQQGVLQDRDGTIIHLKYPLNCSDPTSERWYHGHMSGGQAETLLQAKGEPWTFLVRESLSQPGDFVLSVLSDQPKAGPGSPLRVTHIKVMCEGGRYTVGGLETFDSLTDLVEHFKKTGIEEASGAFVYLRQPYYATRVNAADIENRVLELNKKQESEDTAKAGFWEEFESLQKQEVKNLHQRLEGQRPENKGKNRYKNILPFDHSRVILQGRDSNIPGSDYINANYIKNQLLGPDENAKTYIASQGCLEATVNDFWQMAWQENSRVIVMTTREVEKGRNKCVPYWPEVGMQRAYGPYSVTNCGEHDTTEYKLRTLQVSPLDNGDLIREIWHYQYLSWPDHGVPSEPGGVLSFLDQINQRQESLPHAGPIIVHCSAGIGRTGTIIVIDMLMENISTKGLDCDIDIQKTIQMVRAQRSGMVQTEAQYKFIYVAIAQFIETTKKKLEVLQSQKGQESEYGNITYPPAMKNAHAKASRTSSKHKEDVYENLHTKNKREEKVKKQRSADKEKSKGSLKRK
mutant DUSP5, sequence (Q16690 whole entry S147P): as the sequence (Q16690 whole entry) above, with S147P counted along it
PP1B, sequence (P62140 whole entry, species assumed): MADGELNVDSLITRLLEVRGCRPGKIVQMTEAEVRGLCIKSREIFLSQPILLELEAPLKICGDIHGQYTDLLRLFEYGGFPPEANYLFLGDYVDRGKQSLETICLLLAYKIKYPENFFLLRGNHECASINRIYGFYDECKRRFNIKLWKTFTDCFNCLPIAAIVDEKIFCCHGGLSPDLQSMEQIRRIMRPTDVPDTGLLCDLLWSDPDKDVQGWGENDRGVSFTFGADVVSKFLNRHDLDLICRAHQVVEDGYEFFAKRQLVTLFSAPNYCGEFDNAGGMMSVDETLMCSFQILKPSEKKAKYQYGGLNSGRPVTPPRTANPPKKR

| IC50 [2] | % Change (activity change compared to control) (PP1B) [%] | % Change (activity change compared to control) (PTPN6 (SHP1)) [%] | SMILES | effect on mutant DUSP5 function (mutant DUSP5) | effect on normal vasculature [1] |
| --- | --- | --- | --- | --- | --- |
| – | – | – | O=S(=O)([O-])c1ccc2[nH]c3c(S(=O)(=O)[O-])cc(S(=O)(=O)[O-])cc3c2c1.[Na+].[Na+].[Na+] [RR505, Carbazole-1,3,6-trisulfonic acid, Trisodium Salt] | appears to restore mutant DUSP5's function | does not appear to affect normal vasculature |
| 563 µM and 561 µM | −1 | −5 | O=S(=O)(O)c1cc(O)c2c(S(=O)(=O)O)cccc2c1 [RR527] | – | – |
